Assay [1] has as its target T1, Tubulin alpha-1A chain (Sus scrofa, UniProt P02550). Briefly: Percent inhibition of colchicine binding(ICB) at 5 uM [3H]colchicine concentration.
For assay [2], the target named is T1, Tubulin alpha-1A chain. Put plainly: Inhibition of colchicine binding(ICB). Tubulin concentration was 1 uM.
In assay [3] the target is T1, Tubulin alpha-1A chain. Briefly: Inhibition of colchicine binding(ICB). [3H]colchicine concentration was 5 uM.

Consider 2 compounds from BindingDB's records for doi:10.1021/jm0101085 (University of North Carolina, 2001).

A word on the Inhibition: it is the relative decrease from the control value, in per cent. High values mean a response far below the control, low ones a response near the control.

T1 sequence (P02550 whole entry, looked up): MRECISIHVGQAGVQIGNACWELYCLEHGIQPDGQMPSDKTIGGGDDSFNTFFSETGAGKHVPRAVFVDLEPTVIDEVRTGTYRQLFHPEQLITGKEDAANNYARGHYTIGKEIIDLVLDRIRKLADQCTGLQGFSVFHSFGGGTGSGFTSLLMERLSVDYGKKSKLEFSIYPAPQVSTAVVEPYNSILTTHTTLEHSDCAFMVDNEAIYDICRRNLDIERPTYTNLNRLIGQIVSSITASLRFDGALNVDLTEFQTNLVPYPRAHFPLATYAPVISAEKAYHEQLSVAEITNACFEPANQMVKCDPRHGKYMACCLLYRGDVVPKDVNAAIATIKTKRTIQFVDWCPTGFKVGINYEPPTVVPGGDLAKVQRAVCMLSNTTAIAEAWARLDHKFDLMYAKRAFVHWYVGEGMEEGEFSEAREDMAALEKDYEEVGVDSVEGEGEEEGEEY

Turning to `Oc1cc(-c2ccccc2F)nc2cc3c(cc12)OCO3` [2-(2-fluorophenyl)-6,7-methylenedioxyquinolin-4-one], in assay [1], the Inhibition was found to be 39%.
`Oc1cc(-c2ccccc2F)nc2ccc(N3CCCC3)cc12` [2-(2-fluorophenyl)-6-(pyrrolidin-1-yl)quinolin-4(1H)-one]: the Inhibition worked out at 76% in assay [2] and 93% in assay [3].
